# Measured values as given in patent US20160235752A1, “COMPOSITIONS, METHODS OF USE, AND METHODS OF TREATMENT” (THE UNIVERSITY OF NEW ORLEANS, priority 2013, published 2016).
# Marks after values point to notes of the source that are not given here.
# Test system: Candida albicans (ATCC no. 10231)
# Assay: MIC determination by broth microdilution (NCCLS), visual scoring
# Assay type: cell-based
# Conditions: Table 2, 5-Arylidene-2,4,6-pyrimidinetriones
# Procedure: The antifungal activity of the 2,4,6-pyrimidinetrione analogs shown in Schemes 2-6 were evaluated in vitro using Candida albicans (ATCC no. 10231) and Candida glabrata (ATCC no 48435). All assays were done in accordance with NCCLS reference documents^29.
# Master stock concentrations of all tested compounds were prepared to ensure that the maximum final concentration of DMSO was 1% or less. Subsequent 2-fold serial dilutions were made using sterile water to a final concentration of 1280-5.00 μg/ml. A final 10-fold dilution of each drug was made by aliquotting 0.1 mL of each drug dilution into 0.9 mL of fungal suspension in RPMI 1640 media with 10 mM HEPES buffer added (see methodology below), giving final concentrations tested in the range of 128-0.5 μg/ml.
# Antifungal susceptibility studies and minimal inhibitory concentrations (MIC) values for Candida albicans (ATCC no. 10231) and Candida glabrata (ATCC no. 48435) were determined by the broth microdilution technique in accordance with NCCLS reference documents. Microdilution panels ranged from 0.5 to 128 μg/mL. All organisms were subcultured on Sabouraud agar and passaged to ensure purity and viability. The initiating inocula were prepared by picking 5-7 isolated colonies ˜1 mm in diameter from freshly prepared YM agar plates. Colonies were resuspended in sterile water, vortexed and the cell density was adjusted spectrophotometrically to the transmittance of a 0.5 McFarland standard at a wavelength of 530 nm, to yield a stock suspension of 1×10^6-5×10^6 cells/mL. The stock was allowed to hydrate for 30 minutes at room temperature. A working suspension was then made by diluting the stock 1:50 with RPMI 1640 media containing HEPES buffer. The working suspension was used for all assays. The plates were incubated at 35° C. for 48-72 hours in a humid atmosphere. Growth was scored visually. MIC values are defined as the lowest concentration of agent that prevents any discernible growth, ˜80% reduction of growth, as compared with drug-free control wells. All assays were run in parallel using either fluconazole or amphotericin B at the NCCLS recommended concentrations^29 as a drug control (Sigma-Aldrich).
row,SMILES,MIC80 C. albicans
1,O=C1NC(=O)C(=CC=Cc2ccccc2)C(=O)N1 [BA42],62 µg/mL

# Same assay, conditions: Table 5, Schiff Bases of 5-acylpyrimidinetriones
row,SMILES,MIC80 C. albicans
1,COc1ccc(N=CC2C(=O)NC(=O)NC2=O)cc1 [BA97],"— (none of the 5-acyl-2,4,6-pyrimidinetriones, 5-alkylated pyrimidinetriones or the 5,5-dialkylated pyrimidinetriones showed antifungal activity through 125 μg/mL)"
2,COc1ccc(N=CC2C(=O)N(C)C(=O)N(C)C2=O)cc1 [BA98],"— (none of the 5-acyl-2,4,6-pyrimidinetriones, 5-alkylated pyrimidinetriones or the 5,5-dialkylated pyrimidinetriones showed antifungal activity through 125 μg/mL)"
3,COc1ccc(N=C(C)C2C(=O)N(C)C(=O)N(C)C2=O)cc1 [BA99],"— (none of the 5-acyl-2,4,6-pyrimidinetriones, 5-alkylated pyrimidinetriones or the 5,5-dialkylated pyrimidinetriones showed antifungal activity through 125 μg/mL)"
4,COc1ccc(N=C(C)C2C(=O)NC(=O)NC2=O)cc1 [BA100],"— (none of the 5-acyl-2,4,6-pyrimidinetriones, 5-alkylated pyrimidinetriones or the 5,5-dialkylated pyrimidinetriones showed antifungal activity through 125 μg/mL)"
5,O=C1NC(=O)C(C=Nc2ccc([N+](=O)[O-])cc2)C(=O)N1 [BA101],"— (none of the 5-acyl-2,4,6-pyrimidinetriones, 5-alkylated pyrimidinetriones or the 5,5-dialkylated pyrimidinetriones showed antifungal activity through 125 μg/mL)"
6,CN1C(=O)C(C=Nc2ccc([N+](=O)[O-])cc2)C(=O)N(C)C1=O [BA102],"— (none of the 5-acyl-2,4,6-pyrimidinetriones, 5-alkylated pyrimidinetriones or the 5,5-dialkylated pyrimidinetriones showed antifungal activity through 125 μg/mL)"
7,O=C1NC(=O)C(C=Nc2ccccn2)C(=O)N1 [BA103],"— (none of the 5-acyl-2,4,6-pyrimidinetriones, 5-alkylated pyrimidinetriones or the 5,5-dialkylated pyrimidinetriones showed antifungal activity through 125 μg/mL)"
8,CN1C(=O)C(C=Nc2ccccn2)C(=O)N(C)C1=O [BA104],"— (none of the 5-acyl-2,4,6-pyrimidinetriones, 5-alkylated pyrimidinetriones or the 5,5-dialkylated pyrimidinetriones showed antifungal activity through 125 μg/mL)"
9,O=C1NC(=O)C(/C=N/c2ccc(-c3ccccc3)cc2)C(=O)N1 [BA105],"— (none of the 5-acyl-2,4,6-pyrimidinetriones, 5-alkylated pyrimidinetriones or the 5,5-dialkylated pyrimidinetriones showed antifungal activity through 125 μg/mL)"
10,CN1C(=O)C(C=Nc2ccc(-c3ccccc3)cc2)C(=O)N(C)C1=O [BA106],"— (none of the 5-acyl-2,4,6-pyrimidinetriones, 5-alkylated pyrimidinetriones or the 5,5-dialkylated pyrimidinetriones showed antifungal activity through 125 μg/mL)"
11,O=C1NC(=O)C(/C=N/c2nnc[nH]2)C(=O)N1 [BA107],"— (none of the 5-acyl-2,4,6-pyrimidinetriones, 5-alkylated pyrimidinetriones or the 5,5-dialkylated pyrimidinetriones showed antifungal activity through 125 μg/mL)"
12,CN1C(=O)C(/C=N/c2nnc[nH]2)C(=O)N(C)C1=O [BA108],"— (none of the 5-acyl-2,4,6-pyrimidinetriones, 5-alkylated pyrimidinetriones or the 5,5-dialkylated pyrimidinetriones showed antifungal activity through 125 μg/mL)"
13,O=C1NC(=O)C(/C=N/n2cnnc2)C(=O)N1 [BA109],"— (none of the 5-acyl-2,4,6-pyrimidinetriones, 5-alkylated pyrimidinetriones or the 5,5-dialkylated pyrimidinetriones showed antifungal activity through 125 μg/mL)"
14,CN1C(=O)C(/C=N/n2cnnc2)C(=O)N(C)C1=O [BA110],"— (none of the 5-acyl-2,4,6-pyrimidinetriones, 5-alkylated pyrimidinetriones or the 5,5-dialkylated pyrimidinetriones showed antifungal activity through 125 μg/mL)"
15,O=C1NC(=O)C(/C=N/C2N=NN=N2)C(=O)N1 [BA111],"— (none of the 5-acyl-2,4,6-pyrimidinetriones, 5-alkylated pyrimidinetriones or the 5,5-dialkylated pyrimidinetriones showed antifungal activity through 125 μg/mL)"

# Same assay, conditions: Table 9, Benzenesuifonohydrazones of 5-Acylpyrimidinetrione
row,SMILES,MIC80 C. albicans
1,C/C(=N\NS(=O)(=O)c1ccc(C)cc1)C1C(=O)NC(=O)NC1=O [BA114],"— (none of the 5-acyl-2,4,6-pyrimidinetriones, 5-alkylated pyrimidinetriones or the 5,5-dialkylated pyrimidinetriones showed antifungal activity through 125 μg/mL)"

# Same assay, conditions: Table 9, value marked ** (footnote not given)
row,SMILES,MIC80 C. albicans
1,Cc1ccc(S(=O)(=O)N/N=C/C2C(=O)NC(=O)NC2=O)cc1 [BA113],16** μg/mL
